The record followed here is patent publication US11566022B2, “3-(5-methoxy-1-oxoisoindolin-2-yl)piperidine-2,6-dione derivatives and uses thereof” (NOVARTIS AG, priority 2019, dated 2023).

The target of the assay is HiBit-WIZ fusion protein (Homo sapiens, UniProt O95785+Q96SW2). The assay can be described thus: Quantification of WIZ protein levels in HiBit tag fusion protein assay (WIZ HiBit assay in 293T cells). On the set-up: Dmax: dose or concentration left out as unconfirmed. Particulars: for Dmax / remaining activity at up to 25 µM: HEK-293T, 293T cells; for Dmax: 100 minus Amax, read-out: % degradation of WIZ (100-Amax); for remaining activity at up to 25 µM: DMSO-normalized, curve-fitted percentage of WIZ-HiBit remaining at 25 uM, read-out: WIZ Amax; for DC50: WIZ HiBit assay in 293T cells, 10-point, 5-fold dose response, highest concentration 25 μM, about 18 hours, read-out: WIZ AC50. The assay is classed as cell-based.
Sequence of HiBit-WIZ fusion protein (O95785 whole entry, the tested form may be a part): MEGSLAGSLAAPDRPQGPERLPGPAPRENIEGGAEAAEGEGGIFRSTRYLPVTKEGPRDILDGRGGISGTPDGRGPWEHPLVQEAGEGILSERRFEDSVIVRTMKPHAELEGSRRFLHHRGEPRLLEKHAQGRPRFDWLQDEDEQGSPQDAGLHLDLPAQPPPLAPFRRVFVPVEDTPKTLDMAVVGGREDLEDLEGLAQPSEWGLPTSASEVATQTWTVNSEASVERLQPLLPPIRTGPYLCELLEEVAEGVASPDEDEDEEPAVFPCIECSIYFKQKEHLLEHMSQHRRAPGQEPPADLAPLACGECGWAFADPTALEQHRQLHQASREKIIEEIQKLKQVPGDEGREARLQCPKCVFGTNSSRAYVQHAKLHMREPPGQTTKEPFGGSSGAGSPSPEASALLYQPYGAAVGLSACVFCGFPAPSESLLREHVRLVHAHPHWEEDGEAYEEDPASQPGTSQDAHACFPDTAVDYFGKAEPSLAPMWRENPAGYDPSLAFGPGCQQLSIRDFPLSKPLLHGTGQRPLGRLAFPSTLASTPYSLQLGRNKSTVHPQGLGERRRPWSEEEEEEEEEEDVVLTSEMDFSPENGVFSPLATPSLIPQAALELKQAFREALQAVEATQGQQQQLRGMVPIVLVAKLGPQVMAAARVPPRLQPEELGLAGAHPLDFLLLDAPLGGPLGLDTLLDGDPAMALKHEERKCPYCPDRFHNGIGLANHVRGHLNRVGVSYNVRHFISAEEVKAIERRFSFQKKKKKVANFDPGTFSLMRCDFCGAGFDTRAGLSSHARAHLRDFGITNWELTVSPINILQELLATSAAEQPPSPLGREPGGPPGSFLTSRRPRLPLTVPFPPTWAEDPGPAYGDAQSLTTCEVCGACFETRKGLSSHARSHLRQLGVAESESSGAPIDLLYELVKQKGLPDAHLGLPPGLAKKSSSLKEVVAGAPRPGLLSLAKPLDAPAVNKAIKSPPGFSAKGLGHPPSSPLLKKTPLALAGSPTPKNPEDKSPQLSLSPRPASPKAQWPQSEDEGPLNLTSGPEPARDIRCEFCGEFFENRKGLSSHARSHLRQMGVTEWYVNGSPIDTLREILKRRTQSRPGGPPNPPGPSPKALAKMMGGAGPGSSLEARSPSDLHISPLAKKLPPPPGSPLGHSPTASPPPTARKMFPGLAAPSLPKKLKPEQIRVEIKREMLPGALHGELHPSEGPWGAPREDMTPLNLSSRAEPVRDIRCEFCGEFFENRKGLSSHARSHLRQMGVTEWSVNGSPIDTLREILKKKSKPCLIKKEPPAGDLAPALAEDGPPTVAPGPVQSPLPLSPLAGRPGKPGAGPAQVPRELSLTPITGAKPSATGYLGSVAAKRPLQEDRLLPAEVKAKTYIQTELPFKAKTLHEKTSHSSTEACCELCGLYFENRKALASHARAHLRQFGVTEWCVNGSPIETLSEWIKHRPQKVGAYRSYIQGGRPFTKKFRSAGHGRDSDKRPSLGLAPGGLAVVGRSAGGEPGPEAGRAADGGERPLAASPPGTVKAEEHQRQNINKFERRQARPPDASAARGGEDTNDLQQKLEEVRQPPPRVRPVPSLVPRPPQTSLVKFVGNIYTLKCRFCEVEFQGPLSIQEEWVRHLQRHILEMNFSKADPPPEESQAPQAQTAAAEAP
Sequence of HiBit-WIZ fusion protein (Q96SW2 whole entry, the tested form may be a part): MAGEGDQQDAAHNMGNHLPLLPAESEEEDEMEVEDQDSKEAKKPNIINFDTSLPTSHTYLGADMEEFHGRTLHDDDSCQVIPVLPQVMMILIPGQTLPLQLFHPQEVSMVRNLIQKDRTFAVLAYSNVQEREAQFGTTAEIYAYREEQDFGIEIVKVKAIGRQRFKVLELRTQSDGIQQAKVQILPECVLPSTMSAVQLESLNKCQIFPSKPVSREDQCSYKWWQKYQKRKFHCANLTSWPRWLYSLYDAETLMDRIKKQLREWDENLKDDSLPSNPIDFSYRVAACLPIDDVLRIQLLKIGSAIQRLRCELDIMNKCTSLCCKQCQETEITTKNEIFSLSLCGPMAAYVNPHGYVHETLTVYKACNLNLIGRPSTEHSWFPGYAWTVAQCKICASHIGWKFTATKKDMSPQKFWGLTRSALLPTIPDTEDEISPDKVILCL
Sequence of HiBit-WIZ fusion protein (Q16531 whole entry partner, the tested form may be a part): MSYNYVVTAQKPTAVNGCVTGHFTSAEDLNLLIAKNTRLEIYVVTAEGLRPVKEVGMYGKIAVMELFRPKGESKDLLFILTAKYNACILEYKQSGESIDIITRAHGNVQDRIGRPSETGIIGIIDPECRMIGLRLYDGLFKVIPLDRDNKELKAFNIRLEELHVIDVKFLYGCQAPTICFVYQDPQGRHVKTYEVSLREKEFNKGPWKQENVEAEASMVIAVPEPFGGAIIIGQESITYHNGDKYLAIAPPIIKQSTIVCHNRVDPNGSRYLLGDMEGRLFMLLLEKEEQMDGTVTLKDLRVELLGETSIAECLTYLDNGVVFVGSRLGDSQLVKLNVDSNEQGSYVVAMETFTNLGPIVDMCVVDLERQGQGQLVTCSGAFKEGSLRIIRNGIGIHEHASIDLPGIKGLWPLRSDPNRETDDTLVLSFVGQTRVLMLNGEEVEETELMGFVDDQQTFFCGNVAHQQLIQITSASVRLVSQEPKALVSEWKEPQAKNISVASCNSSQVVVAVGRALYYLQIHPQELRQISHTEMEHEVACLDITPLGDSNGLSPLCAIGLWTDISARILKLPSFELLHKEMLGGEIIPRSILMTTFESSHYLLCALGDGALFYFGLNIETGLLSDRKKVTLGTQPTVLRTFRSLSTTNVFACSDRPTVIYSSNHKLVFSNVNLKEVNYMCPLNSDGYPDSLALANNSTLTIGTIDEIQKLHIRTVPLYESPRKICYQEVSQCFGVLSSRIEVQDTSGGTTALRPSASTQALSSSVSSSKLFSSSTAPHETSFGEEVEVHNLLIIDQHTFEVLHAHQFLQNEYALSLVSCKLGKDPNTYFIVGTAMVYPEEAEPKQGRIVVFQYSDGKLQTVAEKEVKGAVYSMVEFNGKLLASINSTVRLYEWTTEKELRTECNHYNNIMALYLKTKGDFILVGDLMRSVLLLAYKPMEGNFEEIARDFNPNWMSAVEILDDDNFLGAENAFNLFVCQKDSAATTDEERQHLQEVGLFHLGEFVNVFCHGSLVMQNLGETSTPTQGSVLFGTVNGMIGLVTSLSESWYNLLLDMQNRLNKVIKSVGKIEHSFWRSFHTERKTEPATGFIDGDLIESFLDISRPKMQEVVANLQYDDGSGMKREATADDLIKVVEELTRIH

With `COC(=O)c1ccc(Oc2ccc(CN3CCCC[C@@H]3COc3ccc4c(c3)CN(C3CCC(=O)NC3=O)C4=O)cc2)cc1` (stereo partly drawn) [Compound I-50bh], the Dmax was 99.9%, the remaining activity at up to 25 µM amounted to 0.1% and the DC50 amounted to 0.005 µM.

Take `O=C1CCC(N2Cc3cc(OC[C@@H]4CCCCN4Cc4cc(Cl)ccc4O)ccc3C2=O)C(=O)N1` (stereo partly drawn) [Compound I-50bj]: the Dmax came to 25.8%, the remaining activity at up to 25 µM worked out at 74.2% and the DC50 was greater than 25 µM.

As for `N#Cc1cc(CN2CCCC[C@H]2COc2ccc3c(c2)CN(C2CCC(=O)NC2=O)C3=O)ccn1` (stereo partly drawn) [Compound I-50bl], the Dmax came out at 17.6%, the remaining activity at up to 25 µM came out at 82.4% and the DC50 is greater than 25 µM.

`N#Cc1cccc(CN2CCCC[C@H]2COc2ccc3c(c2)CN(C2CCC(=O)NC2=O)C3=O)c1` (stereo partly drawn) [Compound I-50bm]: the Dmax was 36%, the remaining activity at up to 25 µM was 64% and the DC50 was greater than 25 µM.

Take `O=C1CCC(N2Cc3cc(OC[C@@H]4CCCCN4Cc4ccnc(N5CCOCC5)c4)ccc3C2=O)C(=O)N1` (stereo partly drawn) [Compound I-50bn]: the Dmax was determined as 76.2%, the remaining activity at up to 25 µM was found to be 23.8% and the DC50 worked out at 0.897 µM.

For `O=C1CCC(N2Cc3cc(OC[C@@H]4CCCCN4Cc4cccc(N5CCOCC5)n4)ccc3C2=O)C(=O)N1` (stereo partly drawn) [Compound I-50bo], the Dmax worked out at 57.4%, the remaining activity at up to 25 µM was determined as 42.6% and the DC50 stood at 20.8 µM.

As for `Cc1ncc(CN2CCCC[C@@H]2COc2ccc3c(c2)CN(C2CCC(=O)NC2=O)C3=O)[nH]1` (stereo partly drawn) [Compound I-50bp], the Dmax came to 65.9%, the remaining activity at up to 25 µM is 34.1% and the DC50 was 7 µM.

In the case of `COC(=O)[C@@H]1CC[C@H](CN2CCCC[C@@H]2COc2ccc3c(c2)CN(C2CCC(=O)NC2=O)C3=O)C1` (stereo partly drawn) [Compound I-50bq], the Dmax came out at 72.1%, the remaining activity at up to 25 µM worked out at 27.9% and the DC50 was found to be 1.2 µM.

With `O=C1CCC(N2Cc3cc(OC[C@H]4CCCCN4Cc4ccc(N5CCN(Cc6ccccc6)CC5)cc4)ccc3C2=O)C(=O)N1` (stereo partly drawn) [Compound I-50br], the Dmax came out at 94.1%, the remaining activity at up to 25 µM was determined as 5.9% and the DC50 was 0.044 µM.

As to `O=C1CCC(N2Cc3cc(OC[C@H]4CCCCN4Cc4ccc(C(=O)N5CCCC5)cc4)ccc3C2=O)C(=O)N1` (stereo partly drawn) [Compound I-50bs], the Dmax came to 94.5%, the remaining activity at up to 25 µM amounted to 5.5% and the DC50 amounted to 0.018 µM.

As to `O=C1CCC(N2Cc3cc(OC[C@H]4CCCCN4Cc4cnn(Cc5ccccc5)c4)ccc3C2=O)C(=O)N1` (stereo partly drawn) [Compound I-50bv], the Dmax was found to be 99.9%, the remaining activity at up to 25 µM stood at 0.1% and the DC50 is 0.001 µM.

Consider `O=C1CCC(N2Cc3cc(OC[C@@H]4CCCCN4Cc4cccc(O)c4O)ccc3C2=O)C(=O)N1` (stereo partly drawn) [Compound I-50bx], for which the Dmax amounted to 56.4%, the remaining activity at up to 25 µM was found to be 43.6% and the DC50 was 21 µM.

In the case of `Cc1cc(CN2CCCC[C@H]2COc2ccc3c(c2)CN(C2CCC(=O)NC2=O)C3=O)no1` (stereo partly drawn) [Compound I-50by], the Dmax is 25.7%, the remaining activity at up to 25 µM was determined as 74.3% and the DC50 is greater than 25 µM.

Turning to `O=C1CCC(N2Cc3cc(OC[C@@H]4CCCCN4Cc4cccc(Cn5cccn5)c4)ccc3C2=O)C(=O)N1` (stereo partly drawn) [Compound I-50bz], the Dmax was determined as 85.2%, the remaining activity at up to 25 µM turned out to be 14.8% and the DC50 was 0.172 µM.

As for `N#Cc1ccn2cc(CN3CCCC[C@H]3COc3ccc4c(c3)CN(C3CCC(=O)NC3=O)C4=O)nc2c1` (stereo partly drawn) [Compound I-50c], the Dmax turned out to be 38.1%, the remaining activity at up to 25 µM is 61.9% and the DC50 was greater than 25 µM.

In the case of `O=C1CCC(N2Cc3cc(OC[C@H]4CCCCN4Cc4cccn5ccnc45)ccc3C2=O)C(=O)N1` (stereo partly drawn) [Compound I-50ca], the Dmax stood at 76.3%, the remaining activity at up to 25 µM stood at 23.7% and the DC50 was found to be 0.239 µM.

On to `CC(C)N1CCC(CN2CCCC[C@H]2COc2ccc3c(c2)CN(C2CCC(=O)NC2=O)C3=O)CC1` (stereo partly drawn) [Compound I-50cb], for which the Dmax is 74.5%, the remaining activity at up to 25 µM is 25.5% and the DC50 is 5.8 µM.

Consider `O=C1CCC(N2Cc3cc(OC[C@@H]4CCCCN4Cc4cn[nH]c4)ccc3C2=O)C(=O)N1` (stereo partly drawn) [Compound I-50cc], for which the Dmax was 71.7%, the remaining activity at up to 25 µM is 28.3% and the DC50 turned out to be 5.97 µM.

Regarding `Cc1nc2ccccn2c1CN1CCCC[C@@H]1COc1ccc2c(c1)CN(C1CCC(=O)NC1=O)C2=O` (stereo partly drawn) [Compound I-50cd], the Dmax worked out at 69.7%, the remaining activity at up to 25 µM turned out to be 30.3% and the DC50 was 3.74 µM.

With `O=C1CCC(N2Cc3cc(OC[C@H]4CCCCN4Cc4cncnc4)ccc3C2=O)C(=O)N1` (stereo partly drawn) [Compound I-50ce], the Dmax amounted to 43.9%, the remaining activity at up to 25 µM is 56.1% and the DC50 was greater than 25 µM.

With `CC(C)(C)OC(=O)NC1(CN2CCCC[C@@H]2COc2ccc3c(c2)CN(C2CCC(=O)NC2=O)C3=O)CCCC1` (stereo partly drawn) [Compound I-50cf], the Dmax is 38.1%, the remaining activity at up to 25 µM was determined as 61.9% and the DC50 was greater than 25 µM.

As for `O=C1CCC(N2Cc3cc(OC[C@H]4CCCCN4Cc4ccc(OCCN5CCOCC5)cc4)ccc3C2=O)C(=O)N1` (stereo partly drawn) [Compound I-50cg], the Dmax is 92.7%, the remaining activity at up to 25 µM came to 7.3% and the DC50 turned out to be 0.043 µM.

As for `CCOC(=O)c1n[nH]cc1CN1CCCC[C@@H]1COc1ccc2c(c1)CN(C1CCC(=O)NC1=O)C2=O` (stereo partly drawn) [Compound I-50ch], the Dmax is 59.1%, the remaining activity at up to 25 µM came to 40.9% and the DC50 was determined as 9.24 µM.

On to `CC(C)Cn1cc(CN2CCCC[C@H]2COc2ccc3c(c2)CN(C2CCC(=O)NC2=O)C3=O)cn1` (stereo partly drawn) [Compound I-50ci], for which the Dmax is 83.2%, the remaining activity at up to 25 µM worked out at 16.8% and the DC50 was determined as 0.306 µM.

As to `CNc1ncccc1CN1CCCC[C@@H]1COc1ccc2c(c1)CN(C1CCC(=O)NC1=O)C2=O` (stereo partly drawn) [Compound I-50cj], the Dmax is 71.8%, the remaining activity at up to 25 µM is 28.2% and the DC50 amounted to 0.757 µM.

`O=C1CCC(N2Cc3cc(OC[C@@H]4CCCCN4Cc4cnn(Cc5ccccc5)c4)ccc3C2=O)C(=O)N1` (stereo partly drawn) [Compound I-50ck]: the Dmax stood at 83.2%, the remaining activity at up to 25 µM came to 16.8% and the DC50 worked out at 0.766 µM.

`O=C1CCC(N2Cc3cc(OC[C@H]4CCCCN4CC4CCN(C(=O)OCc5ccccc5)CC4)ccc3C2=O)C(=O)N1` (stereo partly drawn) [Compound I-50cl]: the Dmax worked out at 77.7%, the remaining activity at up to 25 µM is 22.3% and the DC50 worked out at 0.644 µM.

Regarding `COc1cc(C#N)ccc1CN1CCCC[C@@H]1COc1ccc2c(c1)CN(C1CCC(=O)NC1=O)C2=O` (stereo partly drawn) [Compound I-50cm], the Dmax was 67.2%, the remaining activity at up to 25 µM is 32.8% and the DC50 was determined as 1.77 µM.

For the molecule `N#Cc1cccc(Cn2cccc(CN3CCCC[C@@H]3COc3ccc4c(c3)CN(C3CCC(=O)NC3=O)C4=O)c2=O)c1` (stereo partly drawn) [Compound I-50cp], the Dmax was found to be 65.2%, the remaining activity at up to 25 µM stood at 34.8% and the DC50 is 3.53 µM.

Turning to `O=C1CCC(N2Cc3cc(OC[C@@H]4CCCCN4Cc4cncnc4)ccc3C2=O)C(=O)N1` (stereo partly drawn) [Compound I-50cq], the Dmax was found to be 7.3%, the remaining activity at up to 25 µM turned out to be 92.7% and the DC50 was greater than 25 µM.

As to `O=C1CCC(N2Cc3cc(OC[C@@H]4CCCCN4CC4CCN(C(=O)OCc5ccccc5)CC4)ccc3C2=O)C(=O)N1` (stereo partly drawn) [Compound I-50cr], the Dmax amounted to 52.9%, the remaining activity at up to 25 µM was determined as 47.1% and the DC50 is greater than 25 µM.

As for `Cc1nc[nH]c1CN1CCCC[C@@H]1COc1ccc2c(c1)CN(C1CCC(=O)NC1=O)C2=O` (stereo partly drawn) [Compound I-50cs], the Dmax was determined as 71.1%, the remaining activity at up to 25 µM came out at 28.9% and the DC50 came to 4.41 µM.

For `O=C1CCC(N2Cc3cc(OC[C@H]4CCCCN4Cc4cnn(-c5cnccn5)c4)ccc3C2=O)C(=O)N1` (stereo partly drawn) [Compound I-50ct], the Dmax came to 80.2%, the remaining activity at up to 25 µM worked out at 19.8% and the DC50 stood at 0.133 µM.

Take `O=C1CCC(N2Cc3cc(OC[C@@H]4CCCCN4Cc4ccnc(O)c4)ccc3C2=O)C(=O)N1` (stereo partly drawn) [Compound I-50cv]: the Dmax is 42.6%, the remaining activity at up to 25 µM is 57.4% and the DC50 is greater than 25 µM.

For the molecule `Cn1c(CN2CCCC[C@@H]2COc2ccc3c(c2)CN(C2CCC(=O)NC2=O)C3=O)nc2ccccc21` (stereo partly drawn) [Compound I-50cw], the Dmax amounted to 39%, the remaining activity at up to 25 µM is 61% and the DC50 was greater than 25 µM.

Regarding `O=C1CCC(N2Cc3cc(OC[C@@H]4CCCCN4Cc4ccnc5[nH]ccc45)ccc3C2=O)C(=O)N1` (stereo partly drawn) [Compound I-50cx], the Dmax was determined as 92.6%, the remaining activity at up to 25 µM amounted to 7.4% and the DC50 amounted to 0.143 µM.

Take `CCc1nc(C)c(CN2CCCC[C@H]2COc2ccc3c(c2)CN(C2CCC(=O)NC2=O)C3=O)[nH]1` (stereo partly drawn) [Compound I-50cy]: the Dmax was found to be 89%, the remaining activity at up to 25 µM stood at 11% and the DC50 amounted to 0.922 µM.

For the molecule `COC(=O)[C@@H]1CC[C@H](CN2CCCC[C@H]2COc2ccc3c(c2)CN(C2CCC(=O)NC2=O)C3=O)C1` (stereo partly drawn) [Compound I-50cz], the Dmax amounted to 49.8%, the remaining activity at up to 25 µM was found to be 50.2% and the DC50 is greater than 25 µM.

On to `COc1ccccc1CN1CCCC[C@H]1COc1ccc2c(c1)CN(C1CCC(=O)NC1=O)C2=O` (stereo partly drawn) [Compound I-50d], for which the Dmax was 78.3%, the remaining activity at up to 25 µM worked out at 21.7% and the DC50 came to 0.784 µM.
